Consider two molecules from paper PMC9098178, “SAR of Novel 3-Arylisoquinolinones: meta-Substitution on the Aryl Ring Dramatically Enhances Antiproliferative Activity through Binding to Microtubules” (Journal of Medicinal Chemistry, 2022).

Molecules are shown by their SMILES.

For one data set, the system named is MCF-7. Kind of data set: SRB antiproliferative assay, MCF-7. The note with it: Homo sapiens, MCF7, 96 h treatment, mean ± SEM, read-out: IC50 MCF-7 (prescreen). The data set is classed as cell-based, human. The method, then:
Initially, the human breast cancer cell line MCF-7 was used in a prescreen analysis of the anticancer activity of 3-arylisoquinolinones. The cells were treated with serial concentrations of compounds 2–8 for 96 h prior to the assessment of proliferation using the sulforhodamine B (SRB) assay. For each compound, the concentration required to inhibit cell growth by 50% compared to that of the untreated control cells (IC50) was determined (Table 1).
(§1) All cell lines used in the study were human-derived and purchased from ATCC (Manassas, USA). Breast adenocarcinoma MCF-7 and MDA-MB-231 cell lines were cultured in DMEM. Hepatocellular carcinoma HepG2 and SNU423 cell lines were grown in MEME combined with 1% (v/v) nonessential amino acids and RPMI supplemented with 2 mM glutamine, respectively. Lung adenocarcinoma A549 and colorectal carcinoma HCT116 cells were grown in RPMI (+2 mM glutamine). All previous media were further supplemented with 10% heat-inactivated fetal bovine serum. The immortalized, normal liver THLE-3 cells were grown in BEGM (Lonza, Cat# CC-3170) onto precoated vessels according to ATCC’s instructions. Human umbilical vein endothelial cells (HUVECs) were cultured in EGM-2 (Lonza, Cat# CC-3162). All of the cells were maintained at 37 °C and 5% CO2 in a humidified incubator.
(§2) Screening of the antiproliferative activity of 3-arylisoquinolinones was performed using the SRB assay as previously described.[56] Exponentially growing HepG2, SNU423, MDA-MB-231, MCF-7, A549, HCT116, THLE-3, and HUVECs were seeded in 96-well plates at densities of 3000, 2000, 1500, 2500, 1000, 1000, 4000, and 4000 cells/well, respectively. These densities were experimentally selected so that the DMSO-treated cells (control) were approximately 80–90% confluent at the assay’s endpoint, and their optical density (OD) values fell within the assay’s linear range. After overnight incubation, the cells were treated with a range of concentrations of the respective compounds for 96 h, 24 h followed by 72 h compound-free incubation or 24 h (for HUVECs only). After treatment, cell monolayers were fixed with 10% (w/v) trichloroacetic acid for 1 h at 4 °C, washed, and dried. Then, the cells were exposed to 0.4% (w/v) SRB dye (prepared in 1% (v/v) acetic acid; Botium, Cat# 80100) for 15 min followed by several 1% acetic acid washing and then drying. Finally, the cellular protein-bound SRB was thoroughly dissolved in 10 mM Tris base, and the OD values were read at 510 nm using a plate reader (μQuant Microplate Spectrophotometer, Biotek, U.K.) coupled with Gen5 software (BioTek, U.K.). Compound-induced changes in cell growth were inferred from changes in OD values. Cell growth was calculated using the following formula: cell growth (%) = (ODtest/ODcontrol) × 100.

Another data set concerns MDA-MB-231. Kind of data set: SRB antiproliferative assay, MDA-MB-231. Format: cell-based, human. The note with it: Homo sapiens, MDA-MB-231, 96 h treatment, mean ± SEM, read-out: IC50 MDA-MB-231. The procedure:
(§3) In light of this substantial change in activity between the meta and para compounds, a more comprehensive analysis of the antiproliferative activity was performed for the meta-/para-3-arylisoquinolinone pairs 2 and 3, 4, and 5, as well as 6. A panel of breast (MDA-MB-231), liver (HepG2, SNU423), lung (A549), and colon (HCT116) cancer cell lines were treated with the five 3-arylisoquinolinone analogs for 96 h followed by the SRB assay. The dose–response curves (including those for MCF-7) are presented in Figure S22, and their relevant IC50 values are listed in Table 1. […] The differential activity between meta- and para-3-arylisoquinolinones was reproduced in the National Cancer Institute (NCI) one-dose screen using a panel of 59 cancer cell lines (Figure S23).
as §1, §2
(Sulforhodamine B stains cellular protein and so reports cell mass.)

The subject of a further data set is HepG2. Nature of the data set: SRB antiproliferative assay, HepG2. Format: cell-based, human. The following applies: Homo sapiens, HepG2, 96 h treatment, mean ± SEM, read-out: IC50 HepG2. The procedure:
as §3, §1, §2

The next data set concerns A549. Kind of data set: SRB antiproliferative assay, A549. The data set is classed as cell-based, human. The following applies: Homo sapiens, A549, 96 h treatment, mean ± SEM, read-out: IC50 A549. The procedure: as §3, §1, §2
The subject of a further data set is HCT116. Nature of the data set: SRB antiproliferative assay, HCT116. The following applies: Homo sapiens, HCT-116, 96 h treatment, mean ± SEM, read-out: IC50 HCT116. Format: cell-based, human. The method, then:
as §3, §1, §2

Another data set relates to HUVECs. Kind of data set: SRB assay of endothelial cell proliferation. The data set is classed as cell-based. The note with it: 24 h, up to 10 μM. The method, then:
Compound 4 was further elucidated whether it blocked the formation of capillary-like tubes and disrupted the already existing tubes of HUVECs as a result of inducing endothelial cell death. Accordingly, the growth of HUVECs treated with 4 was investigated using the SRB assay. HUVECs were plated on 96-well plates without prior coating with Matrigel and then exposed to different concentrations of 4 for 24 h.
All cell lines used in the study were human-derived and purchased from ATCC (Manassas, USA). Breast adenocarcinoma MCF-7 and MDA-MB-231 cell lines were cultured in DMEM. Hepatocellular carcinoma HepG2 and SNU423 cell lines were grown in MEME combined with 1% (v/v) nonessential amino acids and RPMI supplemented with 2 mM glutamine, respectively. Lung adenocarcinoma A549 and colorectal carcinoma HCT116 cells were grown in RPMI (+2 mM glutamine). […]
Screening of the antiproliferative activity of 3-arylisoquinolinones was performed using the SRB assay as previously described.[56] […] Finally, the cellular protein-bound SRB was thoroughly dissolved in 10 mM Tris base, and the OD values were read at 510 nm using a plate reader (μQuant Microplate Spectrophotometer, Biotek, U.K.) coupled with Gen5 software (BioTek, U.K.). […] Cell growth was calculated using the following formula: cell growth (%) = (ODtest/ODcontrol) × 100.

The test system of another data set is purified bovine tubulin. Kind of data set: Cell-free tubulin polymerization assay. The data set is classed as biochemical. The text has this:
Experimentally, the direct interaction of 4 with tubulin was investigated in a cell-free system using a tubulin polymerization assay. […] In control samples, α- and β-tubulin subunits were able to heterodimerize and assemble into microtubules in a time-dependent manner as indicated by increasing absorbance values over time. […] This indicates the incidence of fast polymerization associated with the formation of a denser microtubule mass. […] It is worth mentioning that microtubule dynamics can be potently altered by microtubule-stabilizing or -destabilizing compounds at doses 10- to 100-fold lower than those required for increasing or decreasing the microtubule polymer mass.[31]
The cell-free tubulin polymerization experiment was performed using the Tubulin Polymerization Assay Kit according to the manufacturer’s instructions (Millipore, Cat# 17-10194). The light absorbed by microtubules, which were formed upon tubulin polymerization, is directly proportional to the polymer mass. […] Immediately, the plate was placed in a 37 °C-prewarmed plate reader (BMG LABTECH FLUOstar Omega, Germany) and the absorbance was measured at 1 min intervals for 60 min at a wavelength of 350 nm. The delta absorbance (ΔA) was calculated by subtracting the absorbance values of zero time from those of the subsequent time points and then plotted versus time.

What is called IC50 is the concentration that inhibits the measured activity by half.

For `O=c1[nH]c(-c2ccc(F)cc2)cc2cc(F)ccc12` [compound 5, 6-Fluoro-3-(4-fluorophenyl)isoquinolin-1(2H)-one], the IC50 with MCF-7, in the data set on MDA-MB-231, with HepG2, with A549 and in the data set with HCT116 was > 50 µM throughout.

With `O=c1[nH]c(-c2cccc(F)c2)cc2cc(F)ccc12` [compound 4, 6-Fluoro-3-(3-fluorophenyl)isoquinolin-1(2H)-one], the “effect on proliferation of HUVECs” value with HUVECs was “not able to significantly diminish the proliferation of HUVECs”. Besides, in the data set with purified bovine tubulin (20 μM, nocodazole 10 μM), the “suppression of tubulin polymerization at highest concentration” value was “as effective in suppressing tubulin polymerization as the positive control (nocodazole)”. Also, in the data set with purified bovine tubulin (5, 10, 20 μM, 37 °C, absorbance 350 nm), the “effect on tubulin polymerization” value is on record as “hindered tubulin polymerization in a concentration-dependent manner”.
